Measured values published in patent publication US4093715A, “5-Iodo-5'-amino-2',5'-dideoxycytidine and the pharmaceutically acceptable salts thereof” (priority 1977, dated 1978).

Tests used:
[1] = test system: herpes simplex virus strain HSV-1 (prototype); experiment: Inhibition of herpes simplex virus replication (titre reduction by plaque assay) in infected Vero cells; format: cell-based, herpes simplex virus type 1
Description: The compounds of this invention manifest a high order to inhibition with various herpes simplex viruses. For example, when tested against strain HSV-1 (prototype) at a concentration of 400 μM the average log reduction in titre was 1.4.
(§1) Standard procedures were used to maintain the virus and the Vero cells. This included growth and titration by plaque assay as well as the replications of the virus in the presence of the test compounds. Cells were maintained and infected in Dulbecco's medium with 10% fetal calf serum.
For testing, the cells were infected with virus at a ratio of approximately 10 plaque forming units per cell. The viral inoculum was drained after one hour adsorption at 37° C. An appropriate volume of medium containing the compound for testing was added. After 36-48 hours at 37° C, the infected cells were frozen until ready for titration.

[2] = test system: experimental herpes simplex keratitis; experiment: Treatment of experimental herpes simplex keratitis in rabbits; format: in vivo; settings: topical drops 4 mg/ml at 4 hour intervals for 72 hours starting 24 hours after infection, graded daily for 11 days
Description: One advantage of AIC has been established by the treatment of rabbits. In this study, experimental herpes simplex keratitis was established bilaterally in 16 rabbits. These were divided into 2 matched groups of 8. Each group was treated in a double blind fashion with topical drops at 4 hour intervals for 72 hours starting 24 hours after infection. The solutions administered were:
2. AIC, 4 mg/ml Each eye was examined daily for 11 days and graded by two ophthalmologists.

[3] = test system: mice; experiment: Acute toxicity in mice; format: in vivo; settings: for lethality, acute toxicity: mice
Description: Acute toxicity of AIC in mice indicates no lethality at 200 mg/kg of body weight. However, at a level as high as 400 mg/kg the compound is lethal to mice.

[4] = test system: Vero cells; experiment: Cytotoxicity; format: cell-based
Excerpt: as §1

[5] = cited from earlier work
[6] = test system: newborn rats; settings: systemic administration; cited from earlier work
[7] = test system: pregnant rabbits; settings: topically to the eye, doses similar to those used clinically in humans; cited from earlier work

SMILES	log reduction at 400 µM ([1]; Human alphaherpesvirus 1, HSV-1 (prototype), 400 μM, infected Vero cells, ~10 pfu per cell, 36-48 hours at 37° C)	therapeutic effectiveness in herpes simplex keratitis [2]	lethality, acute toxicity ([3]; 200 mg/kg of body weight)	lethality, acute toxicity ([3]; 400 mg/kg)	therapeutic index (in words) ([3]; from acute toxicity in mice coupled with activity)	cytotoxicity ([4]; at treatment levels as high as 1600 μM)	antiviral activity (in words) ([1]; at relatively low levels)	undesirable side effects ([5]; ocular use in herpes simplex keratitis)	cellular toxicity ([5]; therapy of herpes simplex keratitis)	cytotoxicity ([4]; at a concentration of 50 μM)	teratogenicity [6]	teratogenicity [7]
NC[C@H]1O[C@@H](n2cc(I)c(N)nc2=O)C[C@@H]1O [AIC, 5-Iodo-5'-amino-2',5'-dideoxycytidine]	1.4	effective therapeutically	no lethality	lethal	good therapeutic index	No cytotoxicity is evident						
O=c1[nH]c(=O)n([C@H]2C[C@H](O)[C@@H](CO)O2)cc1I [idoxuridine, 5-iodo-deoxy-uridine]							high order of activity	follicular and papillary conjunctivitis, and epithelial punctate keratopathy	significant cellular toxicity	almost totally cytotoxic	teratogenicity	teratogenicity
